The values below come from US11753407B2, “Compounds for treating spinal muscular atrophy” (PTC Therapeutics, Inc., priority 2012, dated 2023).

Series [1] has as its system SMN2 minigene mRNA (SMN2-A minigene) in HEK293H cells. Description: SMN2 minigene mRNA splicing RT-qPCR assay in cultured cells. It counts as cell-based, human. As to conditions: Homo sapiens, HEK293-H; concentration increasing full length SMN2 mRNA 1.5-fold relative to vehicle-treated cells; HEK293H cells with SMN2-A minigene, 24 hours, 7-point concentration data; read-out: EC1.5x for production of full length SMN2 mRNA. The procedure, abridged: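 Potency reflects the concentration that lifts full-length SMN2 minigene mRNA 1.5-fold above vehicle in stably transfected HEK293H cells after 24 h of treatment. Transcript abundance came from RT-qPCR as (1+E)^−Ct, normalized to GAPDH; endogenous SMN1/SMN2 are not detected.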

Series [2] concerns Smn protein in SMA patient fibroblast cells (GM03813). Description: Smn protein assay in cultured cells (SMN HTRF). Format: cell-based, human. As to conditions: SMA patient fibroblast cells, 48 hours; for EC1.5x for Smn protein expression: 7-point concentration curve, SMN HTRF, concentration producing 1.5 times Smn protein vs DMSO vehicle control; for maximum fold (Fold) increase of Smn protein: 7-point concentration data, fold relative to vehicle control. The procedure, abridged: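 Smn protein abundance in treated SMA fibroblasts was measured by HTRF after 48 h compound exposure. The reported EC1.5× is the concentration producing 1.5 times vehicle Smn levels.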

Structures are written as SMILES. Some results are limits rather than exact numbers.

The molecule `Cc1cn2nc(-c3cc(=O)n4cc(C5=CCN(C)CC5)ccc4n3)cc2c(C)n1` [Compound 350, 2-(4,6-dimethylpyrazolo[1,5-a]pyrazin-2-yl)-7-(1-methyl-1,2,3,6-tetrahydropyridin-4-yl)-4H-pyrido[1,2-a]pyrimidin-4-one] gave a melting point of 193 to 197 °C. For the same molecule, the EC (1.5-fold increase) in series [1] was less than 0.1 µM. Also, in series [2], the “EC1.5x for Smn protein expression” value is listed as “**** (an EC1.5x≤0.3 μM is indicated by four stars (****))” and the “maximum fold (Fold) increase of Smn protein” value (“maximum fold (Fold) increase” for short) was “***** (a fold increase >1.65 is indicated by five stars (*****))”.
As for `C[C@H]1CN(c2ccc3nc(-c4ccc(OC(F)F)cc4)cc(=O)n3c2)CCN1` [Compound 60, 2-[4-(difluoromethoxy)phenyl]-7-[(3S)-3-methylpiperazin-1-yl]-4H-pyrido[1,2-a]pyrimidin-4-one], the melting point fell in the range of 166 to 168 °C. Moreover, in series [1], the EC (1.5-fold increase) lay in the range of 1 to 3 µM. Besides, the “maximum fold (Fold) increase” value in series [2] was “* (A maximum fold increase of ≤1.2 is indicated by one star (*))”.
`Cc1cn2nc(-c3cc(=O)n4cc(N5CCC(C)(N)CC5)ccc4n3)cc2c(C)n1` [Compound 584, 7-(4-amino-4-methylpiperidin-1-yl)-2-(4,6-dimethylpyrazolo[1,5-a]pyrazin-2-yl)-4H-pyrido[1,2-a]pyrimidin-4-one] gave a melting point of 200 to 203 °C. Moreover, the EC (1.5-fold increase) in series [1] was less than 0.1 µM. Also, in series [2], the “EC1.5x for Smn protein expression” value was “**** (an EC1.5x≤0.3 μM is indicated by four stars (****))” and the “maximum fold (Fold) increase” value is “***** (a fold increase >1.65 is indicated by five stars (*****))”.
`CCc1nc(C)cn2nc(-c3cc(=O)n4cc(C5CCN(C(C)C)CC5)ccc4n3)cc12` [Compound 679, 2-(4-ethyl-6-methylpyrazolo[1,5-a]pyrazin-2-yl)-7-[1-(propan-2-yl)piperidin-4-yl]-4H-pyrido[1,2-a]pyrimidin-4-one] showed a melting point of 228 to 230 °C. In series [1], the EC (1.5-fold increase) is less than 0.1 µM. For the same molecule, in series [2], the “EC1.5x for Smn protein expression” value is “**** (an EC1.5x≤0.3 μM is indicated by four stars (****))” and the “maximum fold (Fold) increase” value is listed as “***** (a fold increase >1.65 is indicated by five stars (*****))”.
In the case of `COc1ccc(-c2cc(=O)n3cc(N4CCN[C@H](C)C4)ccc3n2)cc1OC` [Compound 8, 2-(3,4-dimethoxyphenyl)-7-[(3R)-3-methylpiperazin-1-yl]-4H-pyrido[1,2-a]pyrimidin-4-one], the melting point lay within 181 to 184 °C. The EC (1.5-fold increase) in series [1] was in the range of 0.1 to 0.3 µM. For the same molecule, in series [2], the “EC1.5x for Smn protein expression” value is “** (an EC1.5× between >1 μM and ≤3 μM is indicated by two stars (**))”; the “maximum fold (Fold) increase” value is “**** (a fold increase between >1.5 and ≤1.65 is indicated by four stars (****))”.
Regarding `CCN1CCN(c2ccc3nc(-c4ccc5nc(C)[nH]c5c4)cc(=O)n3c2)CC1` [Compound 690, 7-(4-ethylpiperazin-1-yl)-2-(2-methyl-1H-benzimidazol-6-yl)-4H-pyrido[1,2-a]pyrimidin-4-one], the melting point lay in the range of 283 to 285 °C. The EC (1.5-fold increase) in series [1] is less than 0.1 µM. Also, in series [2], the “EC1.5x for Smn protein expression” value is “*** (an EC1.5× between >0.3 μM and ≤1 μM is indicated by three stars (***))”; the “maximum fold (Fold) increase” value was “**** (a fold increase between >1.5 and ≤1.65 is indicated by four stars (****))”.
In the case of `Cc1nc2ccc(-c3cc(=O)n4cc(N5CC[C@@H](N(C)C)C5)ccc4n3)cc2s1` [Compound 383, 7-[(3R)-3-(dimethylamino)pyrrolidin-1-yl]-2-(2-methyl-1,3-benzothiazol-6-yl)-4H-pyrido[1,2-a]pyrimidin-4-one], the melting point was 235 to 240 °C. For the same molecule, the EC (1.5-fold increase) in series [1] is 0.3 to 1 µM. In addition, the “maximum fold (Fold) increase” value in series [2] is “** (a fold increase between >1.2 and ≤1.35 is indicated by two stars (**))”.
Molecule `Cc1cn2cc(-c3cc(=O)n4cc(N5CCN(C(C)C)[C@@H](C)C5)ccc4n3)cc(F)c2n1` [Compound 541, 2-(8-fluoro-2-methylimidazo[1,2-a]pyridin-6-yl)-7-[(3S)-3-methyl-4-(propan-2-yl)piperazin-1-yl]-4H-pyrido[1,2-a]pyrimidin-4-one] had a melting point of 191 to 194 °C. The EC (1.5-fold increase) in series [1] was in the range of 0.1 to 0.3 µM. For the same molecule, in series [2], the “EC1.5x for Smn protein expression” value was “*** (an EC1.5× between >0.3 μM and ≤1 μM is indicated by three stars (***))”; the “maximum fold (Fold) increase” value is on record as “***** (a fold increase >1.65 is indicated by five stars (*****))”.
As to `Cc1cn2nc(-c3cc(=O)n4cc(N5CCC(N6CCCCC6)CC5)ccc4n3)cc2c(C)n1` [Compound 426, 7-(1,4′-bipiperidin-1′-yl)-2-(4,6-dimethylpyrazolo[1,5-a]pyrazin-2-yl)-4H-pyrido[1,2-a]pyrimidin-4-one], the melting point was 236 to 238 °C. In addition, the EC (1.5-fold increase) in series [1] lay in the range of 0.3 to 1 µM. Moreover, in series [2], the “EC1.5x for Smn protein expression” value is “*** (an EC1.5× between >0.3 μM and ≤1 μM is indicated by three stars (***))”; the “maximum fold (Fold) increase” value was “***** (a fold increase >1.65 is indicated by five stars (*****))”.
Consider `COc1cc(F)cc(-c2cc(=O)n3cc(N4CCN[C@@H](C)C4)ccc3n2)c1` [Compound 140, 2-(3-fluoro-5-methoxyphenyl)-7-[(3S)-3-methylpiperazin-1-yl]-4H-pyrido[1,2-a]pyrimidin-4-one], for which the melting point was 154 to 156 °C. Further, the EC (1.5-fold increase) in series [1] was in the range of 1 to 3 µM. Moreover, the “maximum fold (Fold) increase” value in series [2] was “*** (a fold increase between >1.35 and ≤1.5 is indicated by three stars (***))”.
`CCc1nc(C)cn2nc(-c3cc(=O)n4cc(N5CCN(C(C)C)CC5)ccc4n3)cc12` [Compound 619, 2-(4-ethyl-6-methylpyrazolo[1,5-a]pyrazin-2-yl)-7-[4-(propan-2-yl)piperazin-1-yl]-4H-pyrido[1,2-a]pyrimidin-4-one] came in with a melting point of 255 to 258 °C. For the same molecule, in series [1], the EC (1.5-fold increase) is 0.1 to 0.3 µM. Also, in series [2], the “EC1.5x for Smn protein expression” value is “*** (an EC1.5× between >0.3 μM and ≤1 μM is indicated by three stars (***))”; the “maximum fold (Fold) increase” value is on record as “***** (a fold increase >1.65 is indicated by five stars (*****))”.
As for `COc1cc(F)c(-c2cc(=O)n3cc(N4CCN[C@@H](C)C4)ccc3n2)cc1OC` [Compound 65, 2-(2-fluoro-4,5-dimethoxyphenyl)-7-[(3S)-3-methylpiperazin-1-yl]-4H-pyrido[1,2-a]pyrimidin-4-one], the melting point is 167 to 170 °C. Further, in series [1], the EC (1.5-fold increase) fell in the range of 3 to 30 µM. Moreover, the “maximum fold (Fold) increase” value in series [2] was “** (a fold increase between >1.2 and ≤1.35 is indicated by two stars (**))”.
`O=c1cc(-c2cncc(Cl)c2)nc2ccc(N3CCNCC3)cn12` [Compound 94, 2-(5-chloropyridin-3-yl)-7-(piperazin-1-yl)-4H-pyrido[1,2-a]pyrimidin-4-one] displayed a melting point of 208 to 218 °C. In series [1], the EC (1.5-fold increase) was in the range of 1 to 3 µM. For the same molecule, in series [2], the “maximum fold (Fold) increase” value is “*** (a fold increase between >1.35 and ≤1.5 is indicated by three stars (***))”.
Turning to `CCCN1CCN(c2ccc3nc(-c4cc5c(CC)nc(C)cn5n4)cc(=O)n3c2)CC1` [Compound 618, 2-(4-ethyl-6-methylpyrazolo[1,5-a]pyrazin-2-yl)-7-(4-propylpiperazin-1-yl)-4H-pyrido[1,2-a]pyrimidin-4-one], the melting point was in the range of 243 to 245 °C. The EC (1.5-fold increase) in series [1] was less than 0.1 µM. Besides, in series [2], the “EC1.5x for Smn protein expression” value was “**** (an EC1.5x≤0.3 μM is indicated by four stars (****))” and the “maximum fold (Fold) increase” value is “***** (a fold increase >1.65 is indicated by five stars (*****))”.
Molecule `COc1ccc(-c2cc(=O)n3cc(C4=CCN(C5CC5)CC4)cc(C)c3n2)cc1OC` [Compound 390, 7-(1-cyclopropyl-1,2,3,6-tetrahydropyridin-4-yl)-2-(3,4-dimethoxyphenyl)-9-methyl-4H-pyrido[1,2-a]pyrimidin-4-one] yielded a melting point of 180 to 189 °C. For the same molecule, the EC (1.5-fold increase) in series [1] was in the range of 0.3 to 1 µM. The “maximum fold (Fold) increase” value in series [2] is “* (A maximum fold increase of ≤1.2 is indicated by one star (*))”.
As for `Cc1cn2nc(-c3cc(=O)n4cc(N5CCN6CCC[C@@H]6C5)cc(C)c4n3)cc2c(C)n1` [Compound 458, 2-(4,6-dimethylpyrazolo[1,5-a]pyrazin-2-yl)-7-[(8aR)-hexahydropyrrolo[1,2-a]pyrazin-2(1H)-yl]-9-methyl-4H-pyrido[1,2-a]pyrimidin-4-one], the melting point fell in the range of 244 to 256 °C. Further, in series [1], the EC (1.5-fold increase) was less than 0.1 µM. Besides, in series [2], the “EC1.5x for Smn protein expression” value was “*** (an EC1.5× between >0.3 μM and ≤1 μM is indicated by three stars (***))”; the “maximum fold (Fold) increase” value is “**** (a fold increase between >1.5 and ≤1.65 is indicated by four stars (****))”.
`C[C@@H]1CN(c2ccc3nc(-c4ccc5c(c4)OCCO5)cc(=O)n3c2)CCN1` [Compound 35, 2-(2,3-dihydro-1,4-benzodioxin-6-yl)-7-[(3R)-3-methylpiperazin-1-yl]-4H-pyrido[1,2-a]pyrimidin-4-one] came in with a melting point of 212 to 214 °C. In series [1], the EC (1.5-fold increase) lay within 3 to 30 µM. Also, the “maximum fold (Fold) increase” value in series [2] was “* (A maximum fold increase of ≤1.2 is indicated by one star (*))”.
